Test results published in BindingDB's records for doi:10.1021/jm970615f (Parke-Davis Pharmaceutical Research, 1997).

Molecular target: T1, Dimer of Gag-Pol polyprotein [489-587] (Human immunodeficiency virus 1, UniProt P12497)
T1 construct: 489-587
Test: Protease Inhibition Assay
Conditions: not given
Protocol: For determination of IC50 values, HIV-1 protease was added to assay buffer containing inhibitor and the substrate (H-His-Lys-Ala-Arg-Val-Leu- (p-NO2) Phe-Glu-Ala-norleucine-Ser-NH2). The Leu- (p-NO2) Phe bond of the substrate was cleaved by the enzyme, and the substrate and products were separated by reversed-phase HPLC. Absorbance was measured at 220 nm, peak areas were determined, and percentage conversion to product was calculated.

SMILES	IC50 [nM]
O=C1CC(c2ccccc2)(c2ccccc2)OC(=O)C1Sc1ccccc1C1CCCC1 (stereo not drawn) [3-[(2-cyclopentylphenyl)sulfanyl]-4-hydroxy-6,6-diphenyl-5,6-dihydro-2H-pyran-2-one]	14
Cc1ccc(C(C)C)c(SC2C(=O)CC(c3ccccc3)(c3ccccc3)OC2=O)c1 (stereo not drawn) [4-hydroxy-3-{[5-methyl-2-(propan-2-yl)phenyl]sulfanyl}-6,6-diphenyl-5,6-dihydro-2H-pyran-2-one]	38
Cc1ccc(C(C)C)c(SC2C(=O)C[C@@](CCc3ccccc3)(c3ccccc3)OC2=O)c1 (stereo partly drawn) [(6S)-4-hydroxy-3-{[5-methyl-2-(propan-2-yl)phenyl]sulfanyl}-6-phenyl-6-(2-phenylethyl)-5,6-dihydro-2H-pyran-2-one]	6
CC(C)c1ccc(C(C)C)c(SC2C(=O)CC(CCc3ccccc3)(c3ccccc3)OC2=O)c1 (stereo not drawn) [5,6-Dihydro-4-hydroxy-6-phenyl-6-(2-phenylethyl)-3-[(2,5-diisopropylphenyl)sulfanyl]-2H-pyran-2-one]	14
CC(C)c1ccc(C(C)(C)C)c(SC2C(=O)CC(CCc3ccccc3)(c3ccccc3)OC2=O)c1 (stereo not drawn) [3-[(2-tert-Butyl-5-isopropylphenyl)sulfanyl]-5,6-dihydro-4-hydroxy-6-phenyl-6-(2-phenylethyl)-2H-pyran-2-one]	47
CC(C)(C)c1ccccc1SC1C(=O)CC(CCc2ccccc2)(c2ccccc2)OC1=O (stereo not drawn) [3-[(2-tert-butylphenyl)sulfanyl]-4-hydroxy-6-phenyl-6-(2-phenylethyl)-5,6-dihydro-2H-pyran-2-one]	3
O=C1CC2(CCCc3ccccc32)OC(=O)C1SCCc1ccccc1 (stereo not drawn) [3,4-Dihydro-4-hydroxy-5-[(2-phenylethyl)thio]-spiro[naphthalene-1(2H),2-[2H]pyran]-6 (3 H)-one]	1300
CCCCCC1(CCCCC)CC(=O)C(SCc2ccccc2)C(=O)O1 (stereo not drawn) [3-(Benzylsulfanyl)-4-hydroxy-6,6-dipentyl-5,6-dihydro-pyran-2-one]	327
Cc1ccc(C(C)(C)C)c(SC2C(=O)CC(CCc3ccccc3)(c3ccccc3)OC2=O)c1 (stereo not drawn) [4-Hydroxy-5,6-dihydropyrone deriv. 49]	10
O=C1CC(c2ccccc2)(c2ccccc2)OC(=O)C1Sc1ccccc1C1CCCCC1 (stereo not drawn) [3-[(2-Cyclohexylphenyl)sulfanyl]-5,6-dihydro-4-hydroxy-6,6-diphenyl-2H-pyran-2-one]	127
CC(C)(C)c1ccccc1SC1C(=O)CC(c2ccccc2)(c2ccccc2)OC1=O (stereo not drawn) [3-[(2-tert-Butylphenyl)sulfanyl]-5,6-dihydro-4-hydroxy-6,6-diphenyl-2H-pyran-2-one]	49
Cc1ccc(C(C)(C)C)c(SC2C(=O)CC(c3ccccc3)(c3ccccc3)OC2=O)c1 (stereo not drawn) [3-[(2-tert-butyl-5-methylphenyl)sulfanyl]-4-hydroxy-6,6-diphenyl-5,6-dihydro-2H-pyran-2-one]	12
NC(=O)CCCCC1(c2ccccc2)CC(=O)C(SCCc2ccccc2)C(=O)O1 (stereo not drawn) [5-{4-hydroxy-6-oxo-2-phenyl-5-[(2-phenylethyl)sulfanyl]-3,6-dihydro-2H-pyran-2-yl}pentanamide]	338
CC(C)c1ccccc1SC1C(=O)CC(c2ccccc2)(c2ccccc2)OC1=O (stereo not drawn) [4-hydroxy-6,6-diphenyl-3-{[2-(propan-2-yl)phenyl]sulfanyl}-5,6-dihydro-2H-pyran-2-one]	23
CC(C)c1ccc(C(C)C)c(SC2C(=O)CC(c3ccccc3)(c3ccccc3)OC2=O)c1 (stereo not drawn) [3-{[2,5-bis(propan-2-yl)phenyl]sulfanyl}-4-hydroxy-6,6-diphenyl-5,6-dihydro-2H-pyran-2-one]	119
CC(C)c1ccccc1SC1C(=O)CC(CCc2ccccc2)(c2ccccc2)OC1=O (stereo not drawn) [4-hydroxy-6-phenyl-6-(2-phenylethyl)-3-{[2-(propan-2-yl)phenyl]sulfanyl}-5,6-dihydro-2H-pyran-2-one]	14
Cc1ccccc1SC1C(=O)CC(CCc2ccccc2)(c2ccccc2)OC1=O (stereo not drawn) [4-hydroxy-3-[(2-methylphenyl)sulfanyl]-6-phenyl-6-(2-phenylethyl)-5,6-dihydro-2H-pyran-2-one]	73
Cc1ccc(C(C)C)c(SC2C(=O)CC(CCc3ccccc3)(c3ccccc3)OC2=O)c1 (stereo not drawn) [4-hydroxy-3-{[5-methyl-2-(propan-2-yl)phenyl]sulfanyl}-6-phenyl-6-(2-phenylethyl)-5,6-dihydro-2H-pyran-2-one]	7
O=C1CC2(CCc3ccccc32)OC(=O)C1SCc1ccccc1 (stereo not drawn) [5'-(benzylsulfanyl)-4'-hydroxy-3',6',2,3-tetrahydrospiro[indene-1,2'-pyran]-6'-one]	11800

Same assay, conditions: pH 4.7; 37 °C

SMILES	IC50 [nM]
CCCC1(c2ccccc2)CC(=O)C(SCc2ccccc2)C(=O)O1 (stereo not drawn) [5,6-Dihydro-4-hydroxy-6-phenyl-3-[(phenylmethyl)thio]-6-propyl-2H-pyran-2-one]	290
CC(C)CCC1(c2ccccc2)CC(=O)C(SCc2ccccc2)C(=O)O1 (stereo not drawn) [3-(benzylsulfanyl)-4-hydroxy-6-(3-methylbutyl)-6-phenyl-5,6-dihydro-2H-pyran-2-one]	98
O=C1CC(CCc2ccccc2)(c2ccccc2)OC(=O)C1Sc1ccccc1 (stereo not drawn) [5,6-Dihydro-4-hydroxy-6-phenyl-6-(2-phenylethyl)-3-(phenylthio)-2H-pyran-2-one]	130
O=C1CC(c2ccccc2)(c2ccccc2)OC(=O)C1SCc1ccccc1 (stereo not drawn) [5,6-Dihydro-4-hydroxy-6,6-diphenyl-3-[(phenylmethyl)thio]-2H-pyran-2-one]	262
O=C1CC(CC2CCCC2)(c2ccccc2)OC(=O)C1SCc1ccccc1 (stereo not drawn) [6-(Cyclopentylmethyl)-5,6-dihydro-4-hydroxy-6-phenyl-3-[(phenylmethyl)thio]-2H-pyran-2-one]	88
O=C1CC(c2ccccc2)OC(=O)C1SCCc1ccccc1 (stereo not drawn) [5,6-Dihydro-4-hydroxy-6-phenyl-3-[(2-phenylethyl)thio]-2H-pyran-2-one]	2100
CCCC1(c2ccccc2)CC(=O)C(SCCc2ccccc2)C(=O)O1 (stereo not drawn) [5,6-Dihydro-4-hydroxy-6-phenyl-3-[(2-phenylethyl)thio]-6-propyl-2H-pyran-2-one]	5100
CC(C)CCC1(c2ccccc2)CC(=O)C(Sc2ccccc2)C(=O)O1 (stereo not drawn) [5,6-Dihydro-4-hydroxy-6-(3-methylbutyl)-6-phenyl-3-(phenylthio)-2H-pyran-2-one]	1400
CC(C)CCC1(c2ccccc2)CC(=O)C(SCCc2ccccc2)C(=O)O1 (stereo not drawn) [4-hydroxy-6-(3-methylbutyl)-6-phenyl-3-[(2-phenylethyl)sulfanyl]-5,6-dihydro-2H-pyran-2-one]	96
CC(C)CCCC1(c2ccccc2)CC(=O)C(SCc2ccccc2)C(=O)O1 (stereo not drawn) [3-(benzylsulfanyl)-4-hydroxy-6-(4-methylpentyl)-6-phenyl-5,6-dihydro-2H-pyran-2-one]	183
CCCCCC1(c2ccccc2)CC(=O)C(SCc2ccccc2)C(=O)O1 (stereo not drawn) [3-(benzylsulfanyl)-4-hydroxy-6-pentyl-6-phenyl-5,6-dihydro-2H-pyran-2-one]	124
CC(C)CCCC1(c2ccccc2)CC(=O)C(SCCc2ccccc2)C(=O)O1 (stereo not drawn) [4-hydroxy-6-(4-methylpentyl)-6-phenyl-3-[(2-phenylethyl)sulfanyl]-5,6-dihydro-2H-pyran-2-one]	155
CC(C)CC1(c2ccccc2)CC(=O)C(SCc2ccccc2)C(=O)O1 (stereo not drawn) [3-(benzylsulfanyl)-4-hydroxy-6-(2-methylpropyl)-6-phenyl-5,6-dihydro-2H-pyran-2-one]	440
O=C1CC(c2ccccc2)(c2ccccc2)OC(=O)C1SCCc1ccccc1 (stereo not drawn) [5,6-Dihydro-4-hydroxy-6,6-diphenyl-3-[(2-phenylethyl)thio]-2H-pyran-2-one]	152
CC(C)CC1(c2ccccc2)CC(=O)C(SCCc2ccccc2)C(=O)O1 (stereo not drawn) [5,6-Dihydro-4-hydroxy-6-(2-methylpropyl)-6-phenyl-3-[(2-phenylethyl)thio]-2H-pyran-2-one]	1200
O=C1CC(CC2CCCC2)(c2ccccc2)OC(=O)C1SCCc1ccccc1 (stereo not drawn) [6-(cyclopentylmethyl)-4-hydroxy-6-phenyl-3-[(2-phenylethyl)sulfanyl]-5,6-dihydro-2H-pyran-2-one]	510
CCCCCCC1(c2ccccc2)CC(=O)C(SCCc2ccccc2)C(=O)O1 (stereo not drawn) [5,6-Dihydro-6-hexyl-4-hydroxy-6-phenyl-3-[(2-phenylethyl)thio]-2H-pyran-2-one]	112
O=C(O)CCCC1(c2ccccc2)CC(=O)C(SCCc2ccccc2)C(=O)O1 (stereo not drawn) [4-{4-hydroxy-6-oxo-2-phenyl-5-[(2-phenylethyl)sulfanyl]-3,6-dihydro-2H-pyran-2-yl}butanoic acid]	270
O=C(O)CCCCC1(c2ccccc2)CC(=O)C(SCCc2ccccc2)C(=O)O1 (stereo not drawn) [5-{4-hydroxy-6-oxo-2-phenyl-5-[(2-phenylethyl)sulfanyl]-3,6-dihydro-2H-pyran-2-yl}pentanoic acid]	5
O=C1CC(CCc2ccccc2)(c2ccccc2)OC(=O)C1SCc1ccccc1 (stereo not drawn) [3-(benzylsulfanyl)-4-hydroxy-6-phenyl-6-(2-phenylethyl)-5,6-dihydro-2H-pyran-2-one]	60
CCCCCCC1(c2ccccc2)CC(=O)C(SCc2ccccc2)C(=O)O1 (stereo not drawn) [3-(benzylsulfanyl)-6-hexyl-4-hydroxy-6-phenyl-5,6-dihydro-2H-pyran-2-one]	180
CCCCCC1(c2ccccc2)CC(=O)C(SCCc2ccccc2)C(=O)O1 (stereo not drawn) [4-hydroxy-6-pentyl-6-phenyl-3-[(2-phenylethyl)sulfanyl]-5,6-dihydro-2H-pyran-2-one]	84
O=C1CC(CC2CCCCC2)(c2ccccc2)OC(=O)C1SCc1ccccc1 (stereo not drawn) [6-(Cyclohexylmethyl)-5,6-dihydro-4-hydroxy-6-phenyl-3-[(phenylmethyl)thio]-2H-pyran-2-one]	137
O=C1CC(c2ccccc2)OC(=O)C1SCc1ccccc1 (stereo not drawn) [5,6-Dihydro-4-hydroxy-6-phenyl-3-[(phenylmethyl)thio]-2H-pyran-2-one]	8900
